Assay results as given in PubChem BioAssay AID434975 (The Scripps Research Institute Molecular Screening Center, 2010).
The source made the active and inactive calls.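 Rule for the calls: active = inhibition zone diameter above 0 mm; inactive = zone diameter of 0 mm or less.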

tested on: Candida albicans ATCC 90028, disc diffusion zone, 24 h; test: Candida albicans growth inhibition, late-stage follow-up, TPT1 inhibitor project, disc diffusion, zone diameter (AID 434975); conditions: at 10 mM; active compounds read high

SMILES | inhibition zone diameter
CC1=C(C#N)C(=O)N(C2CCS(=O)(=O)C2)C(=O)/C1=C\c1ccco1 (stereo not drawn) | 0 mm (inactive)
O=c1oc2c(O)c(O)cc3c(=O)oc4c(O)c(O)cc1c4c23 | 0 mm (inactive)
Cc1cc(C)n(Cc2ccc(C(=O)NN=Cc3ccc(-c4ccc([N+](=O)[O-])cc4)o3)o2)n1 | 0 mm (inactive)
Cc1ccc(N2C(=O)NC(=O)/C(=C\c3ccc([N+](=O)[O-])o3)C2=O)cc1 | 12.6 mm
OC(Cn1cncn1)(Cn1cncn1)c1ccc(F)cc1F | 38 mm
NC(=O)c1cc[n+](CC2=C(C(=O)O)N3C(=O)[C@@H](NC(=O)C(c4ccccc4)S(=O)(=O)O)[C@H]3SC2)cc1 (stereo partly drawn) | 0 mm (inactive)
COc1ccc(OC)c(N2C(=O)/C(=C/c3ccco3)C(=O)NC2=S)c1 | 0 mm (inactive)
Cc1ccccc1N1C(=O)/C(=C/c2ccco2)C(=O)NC1=S | 0 mm (inactive)
